Experimental data: US20160199320A1, “Ophthalmic Treatments” (Optosolve Research & Development Limited, priority 2011, published 2016)

How the values were obtained:
eye [1] = experiment: pilocarpine drops for constriction of the pupil, with or without tramadol drops; assay type: in vivo
Protocol: In a first example, an eye was treated with pilocarpine drops to cause constriction of the pupil (in this particular example, as part of an ophthalmic diagnostic procedure, although pilocarpine is also be used therapeutically). Such drops can cause significant discomfort and excessive tear formation, possibly washing pilocarpine out of the eye before it could take effect. […] This implies that the tramadol may well be improving the absorption of other drugs.

undamaged eye = details: topically applied to an undamaged eye; cited from earlier work
eye [2] = experiment: ciclosporin composition with added tramadol, post-operative treatment following a corneal transplant; assay type: in vivo; details: addition of 0.5% w/v tramadol to the composition
Text: In a second example, a composition containing ciclosporin would normally be administered to the eye in post-operative treatment following a corneal transplant, to avoid transplant rejection. However, this would lead to significant additional levels of discomfort in the eye.

eye [3] = experiment: eye-drop formulation with tramadol in the left eye of a healthy subject, sensation in the eye; assay type: in vivo, human; details: 0.5% w/v tramadol eye-drop
Protocol: In a third example, a conventional ophthalmic eye-drop formulation was made up, but with the addition of 0.5% w/v tramadol. This formulation was administered to the left eye of a healthy subject. […] Sensation in the right eye remained normal.

eye [4] = experiment: ninth example: tramadol eye-drops in blepharitis with reduced tear break-up time; assay type: in vivo, human; details: eye-drops containing 1.0% w/v tramadol
Text: In a ninth example, a middle-aged person with blepharitis and no corneal staining but a reduced tear break-up time was given eye-drops containing 1.0% w/v tramadol.

eye [5] = experiment: seventh example: tramadol eye-drops in allergic eye disease; assay type: in vivo, human
Text: In a seventh example, a person presented with an allergic eye disease, resulting in significant prolonged itchiness.

eye [6] = experiment: fourth example: patient suffering from dry-eye, tramadol eye-drops, artificial tears, or combination; assay type: in vivo, human; details: topical
Text: In a fourth example, administration of the tramadol-containing eye-drop formulation of the third example to a patient suffering from “dry-eye” reduced the resultant discomfort as expected. […] However, the discomfort remained, which for many patients would lead to actions such as rubbing the affected eye, counteracting much of the improvement.

eye [7] = experiment: sixth example: tramadol eye-drops in a painful infection of the eye; assay type: in vivo, human
Text: In a sixth example, an infection of the subject's eye required treatment with antibiotics. However, the subject was unable to open the respective eyelid due to the consequent pain.

eye [8] = experiment: eighth example: tramadol eye-drops in dry eyes with unstable tear films, tear osmolarity and pain; assay type: in vivo, human; details: for pain: dry eye
Text: In an eighth example, a person presented with dry eyes and unstable tear films, typical symptoms of “dry eye”. The patient's tear osmolarity improved, after use of an eye-drop containing 0.5% w/v tramadol in one eye, from 312 milliOsmoles before instillation of the eye drop to 299 milliOsmoles one hour after instillation.

[9] = middle-aged person with blepharitis
[10] = tramadol 0.5% w/v where present
[11] = drops containing tramadol administered before or in conjunction with the pilocarpine drops
[12] = eye-drop formulation comprising 0.5% w/v tramadol

In the case of `CC[C@@H]1C(=O)OC[C@@H]1Cc1cncn1C` [pilocarpine], the “effectiveness in constriction of the pupil” value (eye [1]; 0.5% w/v pilocarpine administered promptly after or in conjunction with tramadol) is reported as “as effective as 1% w/v pilocarpine administered without tramadol present”.

In the case of `CN1CC[C@]23c4c5ccc(O)c4O[C@H]2[C@@H](O)C=C[C@H]3[C@H]1C5` [morphine], the analgesic effect (undamaged eye) is listed as “very little or no analgesic effect”.

With `COc1cccc(C2(O)CCCCC2CN(C)C)c1` (centres unmarked) [tramadol] the “effectiveness of the ciclosporin” value (eye [2]) was “improve”, the “discomfort in the eye from ciclosporin composition” value (eye [2]; post corneal transplant) was “significantly reduce” and the “duration of numbing effect” value (eye [3]) was “at least 110 minutes”. The side-effects (eye [3]) was “No side-effects were noted”, the “time to noticeably reduced sensation in the eye after instillation” value (eye [3]) was ≤ 3 min and the blepharitis (eye [4]; middle-aged male) was “improved”. For the same compound, the irritable symptoms (eye [4]; [9]) was “improvement”, the tear break-up time (eye [4]; [9]) was “improved, and so did the tear break-up time” and the associated redness (eye [5]; allergic eye disease, eye-drop containing 0.5% w/v tramadol, versus saline drops alone) was “improved with time faster than for the conventional treatment with saline drops alone”. The itchiness (eye [5]; allergic eye disease, person, eye-drop containing 0.5% w/v tramadol) was “improved within a few minutes”, the “results in allergic eye disease (itchiness, redness)” value (eye [5]; eye-drop containing 1.0% w/v tramadol, compared with 0.5% w/v) was “even more rapid and effective results” and the blinking (eye [6]; tramadol 0.5% w/v) was “reduction in blinking”. For the same compound, the discomfort / pain (eye [6]; [10]) was “reduced”, the “dryness / lubrication of the eye” value (eye [6]; [10]) was “dryness remained” and the “physical signs (symptoms and signs)” value (eye [6]; [10]) was “did not improve”. For the same compound, the “discomfort caused by pilocarpine drops” value (eye [1]; [11]) was “greatly reduced”, the “tear formation caused by pilocarpine drops” value (eye [1]; [11]) was “greatly reduced” and the “resolution of the infection” value (eye [7]; 0.5% w/v tramadol followed by antibiotics) was “more rapidly than would have been expected”. The discomfort (eye [7]; [12]) was “rapidly reduced”, the “opening of the eyelid” value (eye [7]; [12]) was “permitting opening of the eyelid” and the “vision in the treated eye” value (eye [7]; [12]) was “allowed reasonable vision”. For the same compound, the pain (eye [8]; eye-drop containing 0.5% w/v tramadol) was “reduced”, the pain (eye [8]; eye-drop containing 1.0% w/v tramadol) was “reduced the patient's pain further” and the tear osmolarity (eye [8]; one hour after instillation of eye-drop containing 0.5% w/v tramadol, 312 milliOsmoles before instillation, person with dry eye) was 299 milliOsmoles.
